From publication PMC9259647 (Scientific Reports, 2022)
Like-named read-outs stand apart in the source and are kept apart here.

Tests used:
[1] = molecular target: T1, HXYN2 (Humicola insolens, UniProt P55334); experiment: Effect of phenolic compounds on HXYN2 activity (DNS xylanase assay); assay type: biochemical, Humicola grisea var. thermoidea; conditions: for activating effect on HXYN2 activity: after 0 and 24 h of incubation
T1 construct: made in house; host or cells: Pichia pastoris GS115 (vector pHIL-D2), purified from culture supernatant
T1 sequence (P55334 20-227): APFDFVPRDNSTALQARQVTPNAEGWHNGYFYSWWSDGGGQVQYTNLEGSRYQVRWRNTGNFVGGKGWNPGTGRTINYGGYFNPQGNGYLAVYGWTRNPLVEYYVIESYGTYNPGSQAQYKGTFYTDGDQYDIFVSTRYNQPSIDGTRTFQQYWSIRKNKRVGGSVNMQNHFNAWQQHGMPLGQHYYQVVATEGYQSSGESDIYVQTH

[2] = tested on: HXYN2; experiment: CD thermal unfolding of HXYN2 in the presence of FA; design: species or system Humicola grisea var. thermoidea; conditions: pH 6.0, FA 60 µM; 63.5 °C without FA
Method: Thermostability assays of HXYN2 were performed at pH 4.0, 6.0, 7.0 and 9.0 at 218 nm, corresponding to the structured region of β-sheet, with temperature ranging from 25 to 95 °C and data collection of 0.2 °C/min. In addition, the CD spectra were recorded at a step size of 0.2 nm at intervals of 10 °C using the same parameters described above. Thermal denaturation curves were plotted considering the molar ellipticity values (θ) versus temperature. The unfolded status of the protein (Fu) was calculated by Eq. (6):6 Fu=yN-y/yN-yU where, yN and yU represent the values of y (into molar ellipticity) characteristic of the folded and unfolded states, respectively. The normalized unfolding curves were adjusted using the Boltzmann equation and the Origin 8.1 software (OriginLab Corporation, Northampton, MA, USA) from which the melting temperature (Tm) was estimated.
The effect of FA on the secondary structure content of HXYN2 was also investigated by CD. Assays were performed with protein at concentration of 0.15 mg/mL in 5 mM Bis–Tris pH 6.0 and FA at concentration of 60 µM. A quartz cuvette of 0.05 cm path length was used to record the Far-UV CD spectra in the range from 260 to 190 nm at 25 °C. Thermostability assays of HXYN2 in the presence of FA at pH 6.0 were also performed, using the same parameters described above.

[3] = molecular target: T1, HXYN2; experiment: Isothermal titration calorimetry of HXYN2 with FA; assay type: binding, Humicola grisea var. thermoidea
Method: An initial spacing setting of 500 s and an initial injection of 2 µL were employed. The following 12 injections of 5 µL were performed with an interval spacing of 600 s. The final 16 injections comprised 10 µL, with an interval spacing of 600 s.
The heat released after each injection was calculated from the raw data by integration of the peaks after subtraction of the baseline. The binding isotherms were fitted to different models using the software ORIGIN v7 (OriginLab, Northampton, MA, USA) provided by MicroCal. The best fit was determined using only two parameters, namely the binding constant (K) and enthalpy (H) on each site, following selction of the total number of sites. […] Changes in Gibbs free energy (ΔG) were calculated by Eq. (3):3 ΔG=-RTlnKa=ΔH-TΔS

[4] = molecular target: T1, HXYN2; experiment: Fluorescence quenching of HXYN2 by FA; assay type: binding, Humicola grisea var. thermoidea; conditions: range, acidic to basic pH
Method: HXYN2 in complex with FA was investigated by fluorescence quenching as a function of pH. Trp and Trp-Tyr emission measurements were performed at 25 °C, in triplicate, after excitation at 295 nm and 275 nm, respectively. Protein fluorescence emission was recorded in the range of 300 to 450 nm. A path length quartz cuvette of 1 cm and excitation and emission slit width of 5 nm were employed. Data intervals of 1 nm, gain medium, a response time of 2 s, and a scanning speed of 50 nm/min were used with two averaged spectra accumulations. Fluorescence quenching of 0.43 µM HXYN2 with 0 to 23.68 µM FA in 95% ethanol and 0.05 M of sodium acetate buffer at pH 4.0 and 0.05 M of Tris–HCl at pH 7.0 and pH 9.0 was performed using a Jasco ATS-443 Automatic titration (Jasco Analytical Instrument, Tokyo, Japan). The fluorescence intensity background and dilution were corrected. The Stern–Volmer linear regression (Eq. 4) of the relative […] of fluorescence intensity at 334 nm (F/F0) versus FA concentration was used to describe the fluorescence quenching of Trp accessible to the quencher[52]:4 F0/F=1+Kq∗τ0Q=1+KSVQ where F and F0 are the fluorescence intensities at 334 nm, in the presence and absence of FA, respectively, Q is the concentration of the quencher, and Ksv is the Stern–Volmer constant. […]

[5] = tested on: HXYN2
[6] = tested on: GH11 xylanase from Aspergillus tamarii; conditions: birchwood xylan as a substrate; cited from earlier work
[7] = tested on: GH10 xylanase from Penicillium chrysogenum; design: method as in PMID 30654038; conditions: oat spelt xylan as a substrate; cited from earlier work
[8] = tested on: fungal cellulases and β-glucosidase; design: method as in PMID 22112771; conditions: cited from earlier work

O=C(O)c1ccc(O)cc1 [4-hydroxybenzoic acid]
activating effect on HXYN2 activity ([1]; 1 mg/mL): 20–75%

COc1cc(/C=C/C(=O)O)ccc1O [FA, 3-(4-hydroxy-3-methoxy-phenyl-prop-2-enoic)]
Tm of HXYN2 in the presence of FA [2]: 54.1 °C
increase in enzymatic activity of HXYN2 in comparison to the control ([1]; 1 mg/mL, 0 and 24 h of incubation, beechwood xylan): 60–75%
activation at 1000 µg/mL ([1]; 24 h, read-out: activating effect on HXYN2, after 24 h of incubation): ~75%
activation at 1000 µg/mL ([1]; read-out: activating effect on HXYN2 activity, 1 mg/mL, after 0 and 24 h of incubation): 20 to 75%
activation at 1000 µg/mL ([1]; read-out: increase in enzymatic activity of HXYN2 in comparison to the control, 1 mg/mL, 0 and 24 h of incubation, beechwood xylan): 75%
Kd ([3]; Kd, binding sites 2 and 4): ~2500 nM
K (binding constant) ([3]; binding site 1, pH 6.0, 298 °K): 14.70 10^6 M^-1
binding constant ([3]; binding sites 2 and 4): ~ 0.4 × 10^6 M^−1
Kd ([3]; dissociation constant (Kd), range over four sites): 68 to 2320 nM
Gibbs free energy ([3]; range over four sites): −5.5 to −10.0 kcal/mol
bimolecular quenching constant, Kq [4]: 3.2e+11 to 6.5e+11 M⁻¹ s⁻¹
Vmax ([5]; FA 0.25 mg/mL): 56.71 ± 1.11 µmol/min
kcat ([5]; FA 0.25 mg/mL): 141.78 min⁻¹
Vmax ([5]; FA 0.5 mg/mL): 117.21 ± 1.26 µmol/min
kcat ([5]; FA 0.5 mg/mL): 293.02 min⁻¹
Vmax ([5]; FA 1 mg/mL): 167.22 ± 8.12 µmol/min
kcat ([5]; FA 1 mg/mL): 418.07 min⁻¹

O=C(O)c1cc(O)c(O)c(O)c1 [gallic acid]
activating effect on HXYN2 activity ([1]; 1 mg/mL): 20–75%

O=C(O)/C=C/c1ccc(O)cc1 [p-coumaric acid]
activating effect on HXYN2 activity ([1]; 1 mg/mL): 20–75%

COc1cc(C=O)cc(OC)c1O [syringaldehyde]
activating effect on HXYN2 activity ([1]; 1 mg/mL): 20–75%

O=C(O)/C=C/c1ccccc1 [trans-cinnamic acid]
activating effect on HXYN2 activity ([1]; 1 mg/mL): 20–75%

COc1cc(C=O)ccc1O [vanillin]
activating effect on HXYN2 activity ([1]; 1 mg/mL): 20–75%

tannic acid
reduction in HXYN2 activity ([1]; 1 mg/mL, pre-incubation 0 h): 26%
reduction in HXYN2 activity ([1]; 1 mg/mL, pre-incubation 24 h): 59%
deactivating effect on HXYN2 ([1]; after 24 h of incubation): ~59%
increase in the activity [6]: 12%
inhibitory effect [7]: 17%
inhibition [8]: up to 80%
